Laboratory results as given in US20150133426A1, “SUBSTITUTED PYRROLOPYRIMIDINES” (BAYER PHARMA AKTIENGESELLSCHAFT, priority 2012, published 2015).

Biological target: T1, human full-length MKNK1 (Homo sapiens, UniProt Q9BUB5, T385D)
T1 construct: purchased Carna Biosciences 02-145; host or cells: insect cells, baculovirus expression system
Test: MKNK1 kinase high ATP assay (TR-FRET)
Assay type: biochemical
Details: high ATP (2 mM), 15 min preincubation with enzyme, GST-MKNK1 (T344D)
Method: MKNK1-inhibitory activity at high ATP of compounds of the present invention after their preincubation with MKNK1 was quantified employing the TR-FRET-based MKNK1 high ATP assay as described in the following paragraphs.
A recombinant fusion protein of Glutathione-S-Transferase (GST, N-terminally) and human full-length MKNK1 (amino acids 1-424 and T344D of accession number BAA 19885.1), expressed in insect cells using baculovirus expression system and purified via glutathione sepharose affinity chromatography, was purchased from Carna Biosciences (product no 02-145) and used as enzyme. As substrate for the kinase reaction the biotinylated peptide biotin-Ahx-IKKRKLTRRKSLKG (C-terminus in amide form) was used, which can be purchased e.g. from the company Biosyntan (Berlin-Buch, Germany).
For the assay 50 nL of a 100fold concentrated solution of the test compound in DMSO was pipetted into a black low volume 384well microtiter plate (Greiner Bio-One, Frickenhausen, Germany), 2 μL of a solution of MKNK1 in aqueous assay buffer [50 mM HEPES pH 7.5, 5 mM MgCl2, 1.0 mM dithiothreitol, 0.005% (v/v) Nonidet-P40 (Sigma)] was added and the mixture was incubated for 15 min at 22° C. to allow pre-binding of the test compounds to the enzyme before the start of the kinase reaction. Then the kinase reaction was started by the addition of 3 μL of a solution of adenosine-tri-phosphate (ATP, 3.3 mM=>final conc. in the 5 μL assay volume is 2 mM) and substrate (0.1 μM=>final conc. in the 5 μL assay volume is 0.06 μM) in assay buffer and the resulting mixture was incubated for a reaction time of 30 min at 22° C. The concentration of MKNK1 was adjusted depending of the activity of the enzyme lot and was chosen appropriate to have the assay in the linear range, typical concentrations were in the range of 0.003 μg/mL. The reaction was stopped by the addition of 5 μL of a solution of TR-FRET detection reagents (5 nM streptavidine-XL665 [Cisbio Bioassays, Codolet, France] and 1 nM anti-ribosomal protein […] (pSer236)-antibody from Invitrogen [#44921G] and 1 nM LANCE EU-W1024 labeled ProteinG [Perkin-Elmer, product no. AD0071]) in an aqueous EDTA-solution (100 mM EDTA, 0.1% (w/v) bovine serum albumin in 50 mM HEPES pH 7.5).
The resulting mixture was incubated for 1 h at 22° C. to allow the formation of complex between the phosphorylated biotinylated peptide and the detection reagents. Subsequently the amount of phosphorylated substrate was evaluated by measurement of the resonance energy transfer from the Eu-chelate to the streptavidine-XL. Therefore, the fluorescence emissions at 620 nm and 665 nm after excitation at 350 nm were measured in a TR-FRET reader, e.g. a Rubystar (BMG Labtechnologies, Offenburg, Germany) or a Viewlux (Perkin-Elmer). The ratio of the emissions at 665 nm and at […] was taken as the measure for the amount of phosphorylated substrate. The data were normalised (enzyme reaction without inhibitor=0% inhibition, all other assay components but no enzyme=100% inhibition).

T1 sequence (Q9BUB5 1-424 isoform Q9BUB5-2 T344D): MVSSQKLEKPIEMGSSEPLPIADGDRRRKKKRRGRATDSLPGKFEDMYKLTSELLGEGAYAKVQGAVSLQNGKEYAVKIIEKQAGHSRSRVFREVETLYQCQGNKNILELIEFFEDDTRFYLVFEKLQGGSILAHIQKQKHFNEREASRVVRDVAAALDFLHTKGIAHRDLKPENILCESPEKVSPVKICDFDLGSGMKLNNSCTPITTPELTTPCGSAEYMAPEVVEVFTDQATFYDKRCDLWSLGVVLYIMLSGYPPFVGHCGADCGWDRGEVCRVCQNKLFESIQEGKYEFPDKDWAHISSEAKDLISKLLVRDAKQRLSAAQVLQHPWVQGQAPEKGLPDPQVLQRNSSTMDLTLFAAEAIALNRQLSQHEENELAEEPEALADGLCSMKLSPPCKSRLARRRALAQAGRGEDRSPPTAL

| Compound | IC50 [nM] |
| --- | --- |
| CS(=O)(=O)CCCNC(=O)C1CCc2[nH]c3ncnc(Nc4cccc5c4OC(F)(F)O5)c3c2C1 (racemic) [Example 60, (RS)-4-[(2,2-Difluoro-1,3-benzodioxol-4-yl)amino]-N-[3-(methylsulfonyl)propyl]-6,7,8,9-tetrahydro-5H-pyrimido[4,5-b]indole-6-carboxamide] | 1360 |
| CCNC(=O)C1CCc2[nH]c3ncnc(Nc4cc(Cl)c(Cl)cc4OC)c3c2C1 (racemic) [Example 21, (RS)-4-[(4,5-Dichloro-2-methoxyphenyl)amino]-N-ethyl-6,7,8,9-tetrahydro-5H-pyrimido[4,5-b]indole-6-carboxamide] | 12 |
| COc1ccc(F)cc1Nc1ncnc2[nH]c3c(c12)CCCC3 [Example 108] | 126 |
| O=C(O)C1CCc2[nH]c3ncnc(Nc4ccc5[nH]ncc5c4)c3c2C1 (racemic) [Example 6, (RS)-4-(1H-Indazol-5-ylamino)-6,7,8,9-tetrahydro-5H-pyrimido[4,5-b]indole-6-carboxylic acid] | 89 |
| COc1cc(Cl)c(Cl)cc1Nc1ncnc2[nH]c3c(c12)CC(C(=O)Nc1ccccc1)CC3 (racemic) [Example 22, (RS)-4-[(4,5-Dichloro-2-methoxyphenyl)amino]-N-phenyl-6,7,8,9-tetrahydro-5H-pyrimido[4,5-b]indole-6-carboxamide] | 313 |
| CS(=O)(=O)CCCNC(=O)C1CCc2[nH]c3ncnc(Nc4ccc(F)c(OC(F)(F)F)c4)c3c2C1 (racemic) [Example 43, (RS)-4-{[4-Fluoro-3-(trifluoromethoxy)phenyl]amino}-N-[3-(methylsulfonyl)propyl]-6,7,8,9-tetrahydro-5H-pyrimido[4,5-b]indole-6-carboxamide] | 782 |
| CC(C)Oc1cc(F)ccc1Nc1ncnc2[nH]c3c(c12)C[S+]([O-])CC3 (racemic) [Example 86, (RS)—N-(4-Fluoro-2-isopropoxyphenyl)-5,7,8,9-tetrahydrothiopyrano[3′,4′:4,5]pyrrolo[2,3-d]pyrimidin-4-amine 6-oxide] | 220 |
| [O-][S+]1CCc2[nH]c3ncnc(Nc4ccc5[nH]ncc5c4)c3c2C1 (racemic) [Example 85, (RS)—N-(1H-Indazol-5-yl)-5,7,8,9-tetrahydrothiopyrano[3′,4′:4,5]pyrrolo[2,3-d]pyrimidin-4-amine 6-oxide] | 192 |
| c1nc(Nc2ccc3[nH]ncc3c2)c2c3c([nH]c2n1)CCC1(C3)OCCO1 [Example 27, N-(1H-Indazol-5-yl)-5′,7′,8′,9′-tetrahydrospiro[1,3-dioxolane-2,6′-pyrimido[4,5-b]indol]-4′-amine] | 51 |
| CS(=O)(=O)CCCNC(=O)C1CCc2[nH]c3ncnc(Nc4ccc5c(c4)OC(F)(F)O5)c3c2C1 (racemic) [Example 36, (RS)-4-[(2,2-Difluoro-1,3-benzodioxol-5-yl)amino]-N-[3-(methylsulfonyl)propyl]-6,7,8,9-tetrahydro-5H-pyrimido[4,5-b]indole-6-carboxamide] | 3170 |
| c1nc(Nc2ccc3[nH]ncc3c2)c2c3c([nH]c2n1)CCCCC3 [Example 3, N-(1H-Indazol-5-yl)-5,6,7,8,9,10-hexahydrocyclohepta[4,5]pyrrolo[2,3-d]pyrimidin-4-amine] | 45 |
| CS(=O)(=O)CCCNC(=O)C1CCc2[nH]c3ncnc(Nc4cc5cn[nH]c5cc4F)c3c2C1 (racemic) [Example 61, (RS)-4-[(6-Fluoro-1H-indazol-5-yl)amino]-N-[3-(methylsulfonyl)propyl]-6,7,8,9-tetrahydro-5H-pyrimido[4,5-b]indole-6-carboxamide] | 17 |
| c1nc(Nc2ccc3[nH]ncc3c2)c2c3c([nH]c2n1)CCC3 [Example 69, N-(1H-Indazol-5-yl)-5,6,7,8-tetrahydrocyclopenta[4,5]pyrrolo[2,3-d]pyrimidin-4-amine] | 507 |
| O=S1(=O)CCc2[nH]c3ncnc(Nc4ccc5[nH]ncc5c4)c3c2C1 [Example 83, N-(1H-Indazol-5-yl)-5,7,8,9-tetrahydrothiopyrano[3′,4′:4,5]pyrrolo[2,3-d]pyrimidin-4-amine 6,6-dioxide] | 62 |

The next lines start with the values.

| IC50 [nM] | Compound |
| --- | --- |
| 104 | COc1ccc(Cl)cc1Nc1ncnc2[nH]c3c(c12)CCCC3 [Example 125] |
| 1790 | O=c1[nH]c2ccc(Nc3ncnc4[nH]c5c(c34)CCCC5)cc2[nH]1 [Example 115] |
| 215 | CCOC(=O)C1CCc2[nH]c3ncnc(Nc4ccc(Cl)c(Cl)c4)c3c2C1 (racemic) [Example 178, (RS)-Ethyl 4-[(3,4-dichlorophenyl)amino]-6,7,8,9-tetrahydro-5H-pyrimido[4,5-b]indole-6-carboxylate] |
| 205 | COCC1(OC)CCc2[nH]c3ncnc(Nc4cc(Cl)ccc4OC)c3c2C1 (racemic) [Example 133] |
| 175 | O=C(NC1CC1)C1CCc2[nH]c3ncnc(Nc4ccccc4N4CCOCC4)c3c2C1 (racemic) [Example 203, (RS)—N-Cyclopropyl-4-{[2-(morpholin-4-yl)phenyl]amino}-6,7,8,9-tetrahydro-5H-pyrimido[4,5-b]indole-6-carboxamide] |
| 100 | COc1ccc(F)cc1Nc1ncnc2[nH]c3c(c12)CC(C(=O)NCc1ccccc1)CC3 (racemic) [Example 200, (RS)—N-Benzyl-4-[(5-fluoro-2-methoxyphenyl)amino]-6,7,8,9-tetrahydro-5H-pyrimido[4,5-b]indole-6-carboxamide] |
| 251 | O=C(O)C1CCc2[nH]c3ncnc(Nc4ccc(F)cc4OCCO)c3c2C1 (racemic) [Example 182, (RS)-4-{[4-Fluoro-2-(2-hydroxyethoxy)phenyl]amino}-6,7,8,9-tetrahydro-5H-pyrimido[4,5-b]indole-6-carboxylic acid] |
| 197 | COCC1(OC)CCc2[nH]c3ncnc(Nc4cc5cn[nH]c5cc4F)c3c2C1 (racemic) [Example 139] |
| ≥ 20000 | COc1ccc(C(F)(F)F)cc1Nc1ncnc2[nH]c3c(c12)CCCC3 [Example 119] |
| ≥ 20000 | O=C(NCc1cccc(C(F)(F)F)c1)C1CCc2[nH]c3ncnc(N4CCc5ccccc54)c3c2C1 (racemic) [Example 210, (RS)-4-(2,3-Dihydro-1H-indol-1-yl)-N-[3-(trifluoromethyl)benzyl]-6,7,8,9-tetrahydro-5H-pyrimido[4,5-b]indole-6-carboxamide] |
| 5700 | COCC1(OC)CCc2[nH]c3ncnc(Nc4cc5[nH]c(=O)[nH]c5cc4Cl)c3c2C1 (racemic) [Example 131] |
| 1 | COc1cc2[nH]ncc2cc1Nc1ncnc2[nH]c3c(c12)CC(C(=O)NCc1ccccc1)CC3 (racemic) [Example 219, (RS)—N-Benzyl-4-[(6-methoxy-1H-indazol-5-yl)amino]-6,7,8,9-tetrahydro-5H-pyrimido[4,5-b]indole-6-carboxamide] |
| 4 | COc1cc2[nH]ncc2cc1Nc1ncnc2[nH]c3c(c12)CC(C(=O)NCCCS(C)(=O)=O)CC3 (racemic) [Example 163, (RS)-4-[(6-Methoxy-1H-indazol-5-yl)amino]-N-[3-(methylsulfonyl)propyl]-6,7,8,9-tetrahydro-5H-pyrimido[4,5-b]indole-6-carboxamide] |
| 8990 | O=C(O)C1CCc2[nH]c3ncnc(N4CCc5ccccc54)c3c2C1 (racemic) [Example 185, (RS)-4-(2,3-Dihydro-1H-indol-1-yl)-6,7,8,9-tetrahydro-5H-pyrimido[4,5-b]indole-6-carboxylic acid] |
